How the values were obtained:
Experiment in all cases: Test B postemergence
Type in all cases: in vivo
Details in all cases: 13 to 15 days
[1] = system: lambsquarters (Chenopodium album)
How it was run: (§1)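 Ratings on a 0 to 100 visual scale (100 complete control) compare treated plants with controls 13 to 15 days after application. Treatments were pre- or postemergence sprays of compound in non-phytotoxic solvent with surfactant.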

[2] = system: morning glory (Ipomoea hederacea)
How it was run: as §1

[3] = system: velvetleaf (Abutilon theophrasti)
How it was run: as §1

[4] = system: cocklebur (Xanthium strumarium)
How it was run: as §1

[5] = system: blackgrass (Alopecurus myosuroides)
How it was run: as §1

corn (Zea mays) = system: corn (Zea mays)
How it was run: as §1

[6] = system: crabgrass (Digitaria sanguinalis)
How it was run: as §1

[7] = system: Surinam grass (Brachiaria decumbens)
How it was run: as §1

wild oat (Avena fatua) = system: wild oat (Avena fatua)
How it was run: as §1

[8] = system: wheat (Triticum aestivum)
How it was run: as §1

[9] = system: giant foxtail (Setaria faberii)
How it was run: as §1

[10] = system: barnyardgrass (Echinochloa crus-galli)
How it was run: as §1

[11] = system: pigweed (Amaranthus retroflexus)
How it was run: as §1

[12] = Rate 125 g/ha, scale 0 (no effect) to 100 (complete control)
[13] = Rate 500 g/ha, scale 0 to 100, 0 is no effect, 100 is complete control

Row | SMILES | Plant response rating, Lambsquarters [1, 12] | Plant response rating, Lambsquarters [1, 13] | Plant response rating, Morningglory [2, 12] | Plant response rating, Morningglory [2, 13] | Plant response rating, Velvetleaf [3, 12] | Plant response rating, Velvetleaf [3, 13] | Plant response rating, Cocklebur [4, 12] | Plant response rating, Cocklebur [4, 13] | Plant response rating, Blackgrass [5, 12] | Plant response rating, Blackgrass [5, 13] | Plant response rating, Corn (corn (Zea mays); [12]) | Plant response rating, Corn (corn (Zea mays); [13]) | Plant response rating, Crabgrass [6, 12] | Plant response rating, Crabgrass [6, 13] | Plant response rating, Surinam grass [7, 12] | Plant response rating, Surinam grass [7, 13] | Plant response rating, Wild Oat (wild oat (Avena fatua); [12]) | Plant response rating, Wild Oat (wild oat (Avena fatua); [13]) | Plant response rating, Wheat [8, 12] | Plant response rating, Wheat [8, 13] | other results
1 | CCC(C)c1nn(C2CCN(c3cccc(C(F)(F)F)c3)C2=O)cc1Cl (stereo not shown) [Compound 13] | 0 | 0 | 0 | 70 | 0 | 0 | 0 | 0 | 0 | 0 | 0 | 0 | 60 | 60 | 0 | 0 | 20 | 20 | 0 | 0 | Plant response rating, Foxtail, Giant [9, 12]: 0; Plant response rating, Foxtail, Giant [9, 13]: 0; Plant response rating, Barnyardgrass [10, 12]: 0; Plant response rating, Barnyardgrass [10, 13]: 0
2 | CC1(c2ccn(C3OCN(c4cccc(OC(F)(F)F)c4)C3=O)n2)CC1 (stereo not shown) [Compound 69] | 80 | 80 | 0 | 0 | 0 | 0 | 0 | 20 | 70 | 70 | 0 | 0 | 0 | 30 | 0 | 0 | 0 | 0 | 0 | 0 | Plant response rating, Pigweed [11, 12]: 0; Plant response rating, Pigweed [11, 13]: 0; Plant response rating, Foxtail, Giant [9, 12]: 0; Plant response rating, Foxtail, Giant [9, 13]: 0; Plant response rating, Barnyardgrass [10, 12]: 0; Plant response rating, Barnyardgrass [10, 13]: 90
3 | CCC(CC)c1ccn(C2OCN(c3cccc(OC(F)(F)F)c3)C2=O)n1 (stereo not shown) [Compound 68] | 100 | 100 | 0 | 0 | 0 | 20 | 50 | 80 | 0 | 0 | 0 | 0 | 90 | 100 | 20 | 30 | 0 | 0 | 0 | 0 | Plant response rating, Pigweed [11, 12]: 0; Plant response rating, Pigweed [11, 13]: 0; Plant response rating, Foxtail, Giant [9, 12]: 20; Plant response rating, Foxtail, Giant [9, 13]: 40; Plant response rating, Barnyardgrass [10, 12]: 90; Plant response rating, Barnyardgrass [10, 13]: 100
4 | Cc1ccn(C2CCN(c3cccc(C(F)(F)F)c3)C2=O)n1 (stereo not shown) [Compound 16] | 0 | 0 | 0 | 0 | 0 | 0 | 0 | 0 | 0 | 0 | 0 | 0 | 0 | 60 | 0 | 0 | 0 | 50 | 0 | 0 | Plant response rating, Foxtail, Giant [9, 12]: 0; Plant response rating, Foxtail, Giant [9, 13]: 30; Plant response rating, Barnyardgrass [10, 12]: 0; Plant response rating, Barnyardgrass [10, 13]: 0
5 | CC(C)(C)c1nn(C2CCN(c3cccc(C(F)(F)F)c3)C2=O)cc1Cl (stereo not shown) [Compound 14] | 0 | 0 | 30 | 80 | 0 | 0 | 0 | 0 | 0 | 0 | 0 | 0 | 50 | 70 | 0 | 0 | 0 | 0 | 0 | 0 | Plant response rating, Foxtail, Giant [9, 12]: 20; Plant response rating, Foxtail, Giant [9, 13]: 30; Plant response rating, Barnyardgrass [10, 12]: 0; Plant response rating, Barnyardgrass [10, 13]: 0
6 | O=C1C(n2cccn2)CCN1c1cccc(C(F)(F)F)c1 (stereo not shown) [Compound 15] | 0 | 0 | 0 | 0 | 0 | 0 | 0 | 0 | 0 | 30 | 0 | 0 | 20 | 50 | 0 | 0 | 0 | 50 | 0 | 0 | Plant response rating, Foxtail, Giant [9, 12]: 0; Plant response rating, Foxtail, Giant [9, 13]: 30; Plant response rating, Barnyardgrass [10, 12]: 0; Plant response rating, Barnyardgrass [10, 13]: 0
